Results taken from US12398141B2 (SHANGHAI SYNERGY PHARMACEUTICAL SCIENCES CO., LTD, priority 2019, dated 2025).

molecular target: hERG potassium channel (Homo sapiens (Human), UniProt Q12809); test: hERG potassium channel current, manual patch clamp; type: cell-based; conditions: HEK293 cells overexpressing hERG potassium channel, whole-cell patch clamp; read-out: IC50 (μM) inhibiting hERG current
Protocol: Effects of compounds H07, H12, H14, H25, H30, H39 and H44 on hERG potassium channel were detected by applying electrophysiological manual patch clamp to study an initial cardiac safety of the compounds of the invention.
Test compounds were dissolved in dimethyl sulfoxide to prepare mother solutions (10 mM, 3.3 mM, 1.1 mM and 0.37 mM). Next an extracellular fluid was used for secondary dilution so that the test solution had final concentrations of 30 μM, 10 μM, 3.3 μM, 1.1 μM and 0.37 μM.
Extracellular fluids: 130 mM sodium chloride, 4 mM potassium chloride, 1.8 mM calcium chloride, 1 mM magnesium chloride, 10 mM glucose, 10 mM 4-hydroxyethylpiperazine ethane sulfonic acid (pH 7.4)
Intracellular fluid: 130 mM potassium chloride, 1 mM magnesium chloride, 5 mM ethylene glycol diethyl ether diamine tetraacetic acid, 5 mM triphosadenine and 10 mM 4-hydroxyethylpiperazine ethane sulfonic acid (pH7.2)
Compositions of a cell culture medium: Dulbecco's modified eagle medium (Grand Turk Island Biotechnology Company, 11330032), 15% fetal calf serum (Sigma, A15-101, USA), 1% penicillin-streptomycin (Biowest, L0022-100).
HEK293 cells overexpressing hERG potassium channel (from Dr. Mohamed Boutjdir's laboratory, School of Medicine, New York University—PharmaCore Labs, Inc.) were incubated in a medium consisting of Dulbecco's modified eagle medium/15% fetal calf serum/1% penicillin-streptomycin in a 5% CO2 incubator at 37° C. In the test, the cells were transferred to a cell bath embedded into a inverted microscope platform, and extracellular fluid was perfused. After stabilization for 5 minutes, the cells were precipitated and then the test could start. Membrane currents were recorded by using HEKA EPC-10 patch clamp amplifier and […] acquisition system (HEKA Instrument Co., Ltd., D-67466 Lambrcht, Palatinate, Germany). All tests were completed at room temperature (22-24° C.). P-97 microelectrode puller (Sutter Instrument Company, Novato, […] 94949) was used to straighten the electrodes (BF150-110-10). The inner diameter of the electrode was 1-1.5 mm, and the water resistance after internal liquid filling was 2-4 MΩ.
Tests were carried out in whole-cell recording mode, with current values recorded according to the electrophysiological stimulation protocol below. First, the membrane voltage was clamped at −80 mV, and the cells were stimulated with +20 mV for two seconds to activate hERG potassium channel, which was then repolarized to −50 mV for five seconds, producing an outward tail current with a stimulation frequency of every 15 seconds. The current value was a peak value of the tail current. In the test, the channel current was recorded in the whole-cell recording mode. First, extracellular fluid (about 2 ml per minute) was perfused and recorded continuously, and then the current was allowed to stabilize (current decay (run-down) was less than 5% within 5 minutes). At this time, the peak value of the tail current was the control current value. Subsequently, the extracellular fluid containing the drug to be tested was perfused and recorded continuously until the inhibiting effect of drug on hERG current reached a stable state, at which time the peak value of the tail current was the current value after adding drugs. After a stable situation was achieved, if hERG current recovered after perfusing and washing with extracellular fluid, perfusion could be continued to test other concentrations or drugs. The solution containing the drugs to be tested was perfused in descending order of concentration and the current values were recorded. […] V2X60 (HEKA Instrument Co., Ltd., D-67466 Lambrcht, Palatinate, Germany) was used to collect data. ORANGE 8.5 (ORANGE Laboratory Company, Northampton, UK) software was used for the analysis and statistics.

Sequence of hERG potassium channel (Q12809 whole entry): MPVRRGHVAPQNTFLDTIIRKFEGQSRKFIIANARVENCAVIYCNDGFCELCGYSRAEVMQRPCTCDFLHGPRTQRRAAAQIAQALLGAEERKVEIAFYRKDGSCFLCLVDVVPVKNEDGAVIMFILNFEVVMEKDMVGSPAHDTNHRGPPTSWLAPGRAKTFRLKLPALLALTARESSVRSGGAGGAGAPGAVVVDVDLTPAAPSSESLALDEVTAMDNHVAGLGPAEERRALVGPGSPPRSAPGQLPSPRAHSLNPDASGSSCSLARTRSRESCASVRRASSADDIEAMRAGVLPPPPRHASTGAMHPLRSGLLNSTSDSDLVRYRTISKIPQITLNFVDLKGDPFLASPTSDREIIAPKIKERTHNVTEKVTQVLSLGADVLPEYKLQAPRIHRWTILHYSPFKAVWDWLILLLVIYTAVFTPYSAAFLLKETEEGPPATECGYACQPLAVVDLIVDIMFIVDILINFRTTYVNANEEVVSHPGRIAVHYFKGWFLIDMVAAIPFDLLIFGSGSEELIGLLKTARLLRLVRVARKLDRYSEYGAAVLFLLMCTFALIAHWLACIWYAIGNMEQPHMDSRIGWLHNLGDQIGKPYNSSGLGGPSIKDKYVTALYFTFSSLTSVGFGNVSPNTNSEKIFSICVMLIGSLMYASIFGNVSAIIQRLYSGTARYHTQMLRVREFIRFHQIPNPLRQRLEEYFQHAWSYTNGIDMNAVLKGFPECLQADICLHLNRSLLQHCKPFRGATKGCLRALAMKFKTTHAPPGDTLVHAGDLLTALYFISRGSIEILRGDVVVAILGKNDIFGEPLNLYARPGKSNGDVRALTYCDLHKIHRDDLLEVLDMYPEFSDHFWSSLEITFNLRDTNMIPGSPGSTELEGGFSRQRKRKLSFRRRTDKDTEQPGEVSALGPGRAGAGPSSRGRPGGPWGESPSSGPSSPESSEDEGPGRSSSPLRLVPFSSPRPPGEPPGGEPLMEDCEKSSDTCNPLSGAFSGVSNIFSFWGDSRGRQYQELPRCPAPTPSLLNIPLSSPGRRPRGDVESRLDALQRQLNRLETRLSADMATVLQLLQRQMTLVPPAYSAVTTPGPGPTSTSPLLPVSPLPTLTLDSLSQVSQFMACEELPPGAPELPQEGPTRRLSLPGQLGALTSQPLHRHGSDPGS

| Compound | IC50 [µM] |
| --- | --- |
| N#Cc1cnc2[nH]ccc2c1N[C@H]1C[C@@H](NS(=O)(=O)CCC(F)(F)F)C1 [Compound H12, (cis)-4-{[3-(3,3,3-trifluoropropanesulfonamido)-cyclobutyl-1-yl]-amino}-1H-pyrrolo[2,3-b]pyridin-5-carbonitrile] | > 30 |
| CC(C)c1nsc(NC(=O)N2C[C@H]3C[C@H](N(C)c4c(C#N)cnc5[nH]ccc45)C[C@H]3C2)n1 [Compound H30, (3aR,5s,6aS)-4-({2-[(3-isopropyl-1,2,4-thiadiazole-5-yl)carbamoyl]-hexahydrocyclopenta[c]pyrrole-5-yl}-methyl-amino)-1H-pyrrolo[2,3-b]pyridin-5-carbonitrile] | > 30 |
| CN(c1c(C#N)cnc2[nH]ccc12)[C@H]1C[C@@H]2CN(C(=O)Nc3nc(OCC(C)(C)N)ns3)C[C@@H]2C1 [Compound H44, (3aR,5s,6aS)-5-((5-cyano-1H-pyrrolo[2,3-b]pyridin-4-yl)(methyl)amino)-N-(3-(2-amino-2-methyl-propoxy)-1,2,4-thiadiazole-5-yl)hexahydrocyclopentadiene[c]pyrrole-2(1H)-carboxamide] | > 30 |
| COc1nsc(NC(=O)N2C[C@H]3C[C@H](N(C)c4c(C#N)cnc5[nH]ccc45)C[C@H]3C2)n1 [Compound H07, (3aR,5s,6aS)-4-({2-[(3-methoxy-1,2,4-thiadiazole-5-yl)carbamoyl]-hexahydrocyclopenta[c]pyrrole-5-yl}-methyl-amino)-1H-pyrrolo[2,3-b]pyridin-5-carbonitrile] | > 30 |
| CCCS(=O)(=O)N[C@H]1C[C@@H](N(C)c2c(C#N)cnc3[nH]ccc23)C1 [Compound H14, (cis)-4-{[3-(propanesulfonamido)-cyclobutyl-1-yl]-methyl-amino}-1H-pyrrolo[2,3-b]pyridin-5-carbonitrile] | > 30 |
| CN(c1c(C#N)cnc2[nH]ccc12)[C@H]1C[C@@H]2CN(C(=O)Nc3ccc(Cl)c(C(F)(F)F)c3)C[C@@H]2C1 [Compound H25, (3aR,5s,6aS)-N-(4-chloro-3-(trifluoromethyl)phenyl)-5-((5-cyano-1H-pyrrolo[2,3-b]pyridin-4-yl)(methyl)amino)hexahydrocyclopentadiene[c]pyrrole-2(1H)-carboxamide] | > 30 |
| N#Cc1cnc2[nH]ccc2c1N1CC2CN(C(=O)NCC(F)(F)F)CC21 (stereo not shown) [Compound H39, 6-(5-cyano-1H-pyrrolo[2,3-b]pyridin-4-yl)-N-(2,2,2-trifluoroethyl)-3,6-diazabicyclo[3.2.0]heptane-3-carboxamide] | > 30 |
